Reference: the supplement of paper PMC10307832

Tests used:
Test in all cases: relative viability (nuclei count vs DMSO), 5 days (fraction); higher = more cells survive
[1] = compound: CC1=C(C(=NN1)C)CC2=C(C3=C(S2)N(C(=O)N(C3=O)C)CC(C)C)C(=O)N4C[C@@H](CO4)O + CC(=O)c1c(C)c2cnc(Nc3ccc(N4CCNCC4)cn3)nc2n(C2CCCC2)c1=O [Palbociclib] (partner 0.5 µM)
Method in brief: (§1)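 The day after seeding in 1536-well plates, lung cancer cell lines were treated by pin tool with a single drug, or with a fixed anchor-drug dose together with five library-drug doses (not always all listed) in √10 steps. After 5 days, a combined fix-and-stain solution (final 0.05% Triton X-100, 1% formaldehyde, 1 ug/ml Hoechst) was added. Nuclei counted on 4× images gave relative viability as treated counts over vehicle counts, reported as the median of duplicate plates.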

[2] = compound: Cc1ccccc1C(C(=O)NC1CCCCC1)N(C(=O)Cn1ccnc1C)c1cccc(F)c1 [IDH-C35] + CC(C)C[C@H](NC(=O)[C@H](Cc1ccccc1)NC(=O)c1cnccn1)B(O)O [Bortezomib] (partner 0.002 µM)
Method in brief: as §1

[3] = compound: CC1=C(C(=NN1)C)CC2=C(C3=C(S2)N(C(=O)N(C3=O)C)CC(C)C)C(=O)N4C[C@@H](CO4)O + C[C@@H](Oc1cc(-c2cnn(C3CCNCC3)c2)cnc1N)c1c(Cl)ccc(F)c1Cl [Crizotinib] (partner 1 µM)
Method in brief: as §1

[4] = compound: Cc1ccccc1C(C(=O)NC1CCCCC1)N(C(=O)Cn1ccnc1C)c1cccc(F)c1 [IDH-C35] + O=C(CCCCCCC(=O)Nc1ccccc1)NO [Vorinostat] (partner 1 µM)
Method in brief: as §1

| Cell Line | relative viability ([1]; first compound 0.0025 µM) | relative viability ([1]; first compound 0.007906 µM) | relative viability ([1]; first compound 0.025 µM) | relative viability ([1]; first compound 0.07906 µM) | relative viability ([1]; first compound 0.25 µM) | relative viability ([2]; first compound 0.08 µM) | relative viability ([2]; first compound 0.253 µM) | relative viability ([2]; first compound 0.8 µM) | relative viability ([2]; first compound 2.53 µM) | relative viability ([2]; first compound 8 µM) | relative viability ([3]; first compound 0.0025 µM) | relative viability ([3]; first compound 0.007906 µM) | relative viability ([3]; first compound 0.025 µM) | relative viability ([3]; first compound 0.07906 µM) | relative viability ([3]; first compound 0.25 µM) | relative viability ([4]; first compound 0.08 µM) | relative viability ([4]; first compound 0.253 µM) | relative viability ([4]; first compound 0.8 µM) | relative viability ([4]; first compound 2.53 µM) | relative viability ([4]; first compound 8 µM) |
| --- | --- | --- | --- | --- | --- | --- | --- | --- | --- | --- | --- | --- | --- | --- | --- | --- | --- | --- | --- | --- |
| NCI-H460 | 0.181 | 0.199 | 0.204 | 0.226 | 0.217 | 1.2 | 1.18 | 1.08 | 1.11 | 1.12 | 0.865 | 1.1 | 0.848 | 1.12 | 0.948 | 0.723 | 0.693 | 0.676 | 0.725 | 0.649 |
| NCI-H520 | 0.256 | 0.225 | 0.259 | 0.239 | 0.204 | 0.759 | 0.344 | 0.636 | 0.731 | 0.756 | 0.717 | 0.671 | 0.307 | 0.291 | 0.36 | 0.68 | 0.728 | 0.899 | 0.669 | 0.699 |
| NCI-H647 | 0.376 | 0.409 | 0.441 | 0.518 | 0.287 | 1.08 | 0.805 | 0.989 | 1.19 | 0.889 | 1.26 | 1.32 | 1.02 | 1.05 | 1.38 | 0.541 | 0.565 | 0.577 | 0.769 | 0.528 |
| NCI-H650 | 0.345 | 0.353 | 0.274 | 0.334 | 0.347 | 0.774 | 0.93 | 0.755 | – | 0.861 | 0.949 | 0.75 | 0.631 | 0.77 | 0.773 | 0.413 | 0.434 | 0.515 | – | 0.505 |
| NCI-H661 | 0.395 | 0.426 | 0.455 | 0.396 | 0.426 | 0.953 | 0.809 | 0.837 | 0.828 | 0.761 | – | 0.965 | 0.938 | 0.988 | 1.07 | 0.753 | 0.816 | 0.778 | 0.756 | 0.721 |
| NCI-H727 | 0.697 | 0.655 | 0.676 | 0.682 | 0.679 | 0.891 | 0.896 | 0.801 | 0.782 | 0.94 | 0.697 | 0.65 | 0.882 | 0.838 | 0.754 | 1.2 | 1.08 | 1.02 | 1.17 | 1.16 |
| NCI-H838 | 0.206 | 0.193 | 0.182 | 0.275 | 0.182 | 1.06 | 0.758 | 0.668 | 1.1 | 1.08 | 0.869 | 1.02 | 0.747 | 0.809 | 0.885 | 0.706 | 0.675 | 0.718 | 0.763 | 0.72 |
| NCI-H1355 | 0.413 | 0.459 | 0.408 | 0.401 | 0.414 | 1.21 | 1.15 | 1.16 | 1.17 | 1.05 | 1.07 | 1.09 | 1.09 | 1.05 | 1.14 | 0.665 | 0.691 | 0.601 | 0.646 | 0.691 |
